Test results published in the supplement of paper PMC8671470.

Key:
Conditions in all cases: 72 h
Mono-Mac-6 [1] = test: cell viability (% survival relative to DMSO control, bortezomib = 0%); higher = less cytotoxic
Outline: (§1)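 Percent survival is reported as the mean of duplicate wells. Cells from 10 AML and 5 CML lines were plated in 384-well plates containing compounds at 1, 10, 100, 1000 or 10000 nM and kept for 72 h at 37 °C in 5% CO2. Readout used CellTiter-Glo luminescence, scaled so that vehicle equals 100% and a 10 µM positive control equals 0%.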

NOMO-1 [2] = test: as above
Outline: as §1

THP-1 [3] = test: as above
Outline: as §1

ML-2 [4] = test: as above
Outline: as §1

KCL-22 [5] = test: as above
Outline: as §1

BV-173 [6] = test: as above
Outline: as §1

HEL [7] = test: as above
Outline: as §1

KU-812 [8] = test: as above
Outline: as §1

K-562 [9] = test: as above
Outline: as §1

KG-1 [10] = test: as above
Outline: as §1

LAMA-84 [11] = test: as above
Outline: as §1

HL-60 [12] = test: as above
Outline: as §1

MV4-11 [13] = test: as above
Outline: as §1

MOLM-13 [14] = test: as above
Outline: as §1

SHI-1 [15] = test: as above
Outline: as §1

Mono-Mac-6 [16] = system: Mono-Mac-6
Outline: (§2)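 For the IC50, dose–response curves were fitted with a log-logistic model. The data came from fifteen myeloid leukaemia cell lines grown in RPMI 1640 at densities in the linear growth range and incubated in 384-well plates for 72 h at 37 °C under 5% CO2. Doses were five tenfold steps from 1 to 10,000 nM in duplicate, and luminescent ATP viability was normalised to vehicle and to a positive control at 10 µM before four-parameter fitting.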

NOMO-1 [17] = system: NOMO-1
Outline: as §2

THP-1 [18] = system: THP-1
Outline: as §2

ML-2 [19] = system: ML-2
Outline: as §2

KCL-22 [20] = system: KCL-22
Outline: as §2

BV-173 [21] = system: BV-173
Outline: as §2

HEL [22] = system: HEL
Outline: as §2

KU-812 [23] = system: KU-812
Outline: as §2

K-562 [24] = system: K-562
Outline: as §2

KG-1 [25] = system: KG-1
Outline: as §2

LAMA-84 [26] = system: LAMA-84
Outline: as §2

HL-60 [27] = system: HL-60
Outline: as §2

MV4-11 [28] = system: MV4-11
Outline: as §2

MOLM-13 [29] = system: MOLM-13
Outline: as §2

SHI-1 [30] = system: SHI-1
Outline: as §2

Cn1cc(C[C@@H](N)C(=O)O)c2ccccc21 [Indoximod]
cell viability [%]
Conditions | 1 nM | 10 nM | 100 nM | 1000 nM | 10000 nM
BV-173 [6] | 134 | 95.3 | 90.6 | 84.7 | 100
HEL [7] | 110 | 97.1 | 85.8 | 120 | 100
HL-60 [12] | 102 | 90.2 | 116 | 97.3 | 106
K-562 [9] | 103 | 108 | 79.8 | 87.5 | 89.9
KCL-22 [5] | 109 | 86.8 | 82.5 | 106 | 101
KG-1 [10] | 107 | 99 | 102 | 99.2 | 97.6
KU-812 [8] | 93.8 | 101 | 90.9 | 105 | 95.6
LAMA-84 [11] | 94.5 | 97.2 | 91.1 | 113 | 94.7
ML-2 [4] | 97.8 | 97.2 | 100 | 106 | 92.9
MOLM-13 [14] | 104 | 97.7 | 81.3 | 86.8 | 76.7
MV4-11 [13] | 93.3 | 88.2 | 103 | 85.5 | 94.9
Mono-Mac-6 [1] | 104 | 102 | 92.9 | 97.7 | 91.8
NOMO-1 [2] | 112 | 96.2 | 95.6 | 117 | 99
SHI-1 [15] | 96 | 101 | 102 | 107 | 104
THP-1 [3] | 99.3 | 96.4 | 102 | 94.8 | 98.4

Conditions | IC50 (cell viability) [µM]
BV-173 [21] | > 10
HEL [22] | > 10
HL-60 [27] | > 10
K-562 [24] | > 10
KCL-22 [20] | > 10
KG-1 [25] | > 10
KU-812 [23] | > 10
LAMA-84 [26] | > 10
ML-2 [19] | > 10
MOLM-13 [29] | > 10
MV4-11 [28] | > 10
Mono-Mac-6 [16] | > 10
NOMO-1 [17] | > 10
SHI-1 [30] | > 10
THP-1 [18] | > 10
